pEC50: −log10 of the molar value.
How the values were obtained:
[1] = tested on: HCC38 cells; test: 6-day cell proliferation assay, HCC38; assay type: cell-based, human; settings: Homo sapiens, 144 h; HCC38, proliferation over 6 days
Procedure: (§1) Human breast cancer cell lines MCF7, BT-474, T-47D, MDA-MB-453, MDA-MB-231, Hs 578T, HCC38, SK-BR-3, and DU4475 were purchased from the American Type Culture Collection (ATCC) and no additional cell authentication was performed. The TSE human breast cancer cell line was supplied by Dr. Steven Abcouwer (University of Michigan). All breast cancer cells were cultured at 37° C. under a 5% CO2 atmosphere in RPMI 1640 medium containing 2 mM glutamine (Gibco) and supplemented with 10% fetal bovine serum (FBS) (Gibco). The 293T cell line (ATCC) used for generating lentivirus particles was cultured as above but using DMEM, high glucose (Gibco).
(§2) Culture medium was added to 12-well plates (1 ml/well) and wells were seeded with cells at Day 0 as follows. MCF7, T-47D, BT-474, HCC38 cells: […] cells/well. MDA-MB-453 and MDA-MB-231 cells: 1×10^4 cells/well. TSE and Hs 578T cells: 0.3×10^4 cells/well. After 16 hours, culture medium was replaced with fresh medium supplemented with appropriate concentrations of inhibitors and was subsequently replaced every 48 hours. On Day 6 cells were trypsinized and suspended in an appropriate volume of culture medium, and the total number of cells per well was determined using a hemocytometer or a TC20 Automated Cell Counter (Bio-Rad).

[2] = tested on: Hs 578T cells; test: 6-day cell proliferation assay, Hs 578T; assay type: cell-based, human; settings: Homo sapiens, 144 h, proliferation over 6 days
Procedure: as §1, §2

[3] = tested on: MDA-MB-231 cells; test: 6-day cell proliferation assay, MDA-MB-231; assay type: cell-based, human; settings: Homo sapiens, 144 h; MDA-MB-231, proliferation over 6 days
Procedure: as §1, §2

[4] = tested on: BT-474 cells; test: 6-day cell proliferation assay, BT-474; assay type: cell-based, human; settings: Homo sapiens, 144 h; BT-474, proliferation over 6 days
Procedure: as §1, §2

[5] = tested on: MDA-MB-453 cells; test: 6-day cell proliferation assay, MDA-MB-453; assay type: cell-based, human; settings: Homo sapiens, 144 h; MDA-MB-453, proliferation over 6 days
Procedure: as §1, §2

[6] = tested on: TSE cells; test: 6-day cell proliferation assay, TSE; assay type: cell-based, human; settings: Homo sapiens, 144 h; TSE, proliferation over 6 days
Procedure: as §1, §2

[7] = biological target: T1, recombinant full-length human GLS2 (Homo sapiens, UniProt Q9UI32); test: Real-time recombinant glutaminase activity assay, GLS2; assay type: biochemical; settings: different concentrations
T1 construct: GLS2 (residues 38 to 602) in E. coli; inferred from pQE80 vector and Ni-NTA/imidazole purification; made in house; host or cells: E. coli BL21(DE3)
T1 sequence (Q9UI32 38-602): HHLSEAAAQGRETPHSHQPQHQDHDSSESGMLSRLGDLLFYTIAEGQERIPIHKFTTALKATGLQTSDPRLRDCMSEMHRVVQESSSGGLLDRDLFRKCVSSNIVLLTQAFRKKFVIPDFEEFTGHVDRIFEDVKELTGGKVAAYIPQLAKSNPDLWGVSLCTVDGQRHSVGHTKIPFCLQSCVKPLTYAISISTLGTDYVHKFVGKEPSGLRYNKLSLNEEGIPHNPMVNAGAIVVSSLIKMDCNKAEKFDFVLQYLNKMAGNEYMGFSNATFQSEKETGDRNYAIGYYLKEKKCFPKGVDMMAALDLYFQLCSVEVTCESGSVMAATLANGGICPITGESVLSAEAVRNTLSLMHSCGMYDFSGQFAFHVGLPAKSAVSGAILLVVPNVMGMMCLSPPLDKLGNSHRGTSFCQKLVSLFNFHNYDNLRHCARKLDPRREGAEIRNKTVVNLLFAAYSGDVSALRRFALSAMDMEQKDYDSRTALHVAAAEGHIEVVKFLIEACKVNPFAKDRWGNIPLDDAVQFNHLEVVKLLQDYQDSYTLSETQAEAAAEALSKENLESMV
Procedure: Real-time monitoring of glutaminase activity through NADH production was performed on a Cary Eclipse fluorescence spectrometer. The excitation and emission wavelengths were set at 340 nm and 460 nm, respectively. To a 1 ml cuvette, 900 μl of assay buffer was added, followed by 10 μl of GDH, 40 μl of 50 mM NAD and 20 μl of either DMSO or various dilutions of 968. Then, 100 μl of either 100 nM GAC or 500 nM GLS2 was added to this mixture and the fluorescence emission was monitored in real time. After 30 s, 200 μl of a mixture of glutamine and K2HPO4 was added such that the final concentrations of K2HPO4 and glutamine were 100 mM and 20 mM, respectively. The initial velocity of glutamine hydrolysis was obtained from the slopes of the linear portion of the kinetic curve.
Recombinant GAC and GLS2 were expressed in E. coli as described in Huang et al., “Characterization of the Interactions of Potent Allosteric Inhibitors with Glutaminase C, a Key Enzyme in Cancer Cell Glutamine Metabolism,” J. Biol. Chem. 293:3535-3545 (2018), which is hereby incorporated by reference in its entirety. Briefly, E. coli strain BL21(DE3) (Thermo Fisher Scientific) were transformed with vector pQE80-GAC-72-598 or with pQE80-GLS2-38-602 to express the processed forms of GAC and GLS2, respectively. For both constructs, expression was induced with 0.3 mM IPTG for 20 hours at 18° C., and cells were then harvested by centrifugation and lysed by sonication in binding buffer (500 mM NaCl, 50 mM Tris-HCl pH 8.5, 10 mM imidazole, 5 mM β-mercaptoethanol, 1 mM benzamidine chloride). The lysate was centrifuged, and the supernatant applied to a Ni-NTA column which was then washed with 100 column volumes of binding buffer followed by 10 volumes of wash buffer (500 mM NaCl, 50 mM Tris-HCl pH 8.5, 40 mM imidazole, 5 mM β-mercaptoethanol, 1 mM benzamidine chloride). Protein was eluted with 5 column volumes of elution buffer (500 mM NaCl, 300 mM imidazole-HCl pH 7.5, 5 mM β-mercaptoethanol, 1 mM benzamidine chloride). The eluate was centrifugally concentrated and then further purified by FPLC using a HiLoad 16/600 Superdex 200 column (GE Healthcare) with 150 mM NaCl, 5 mM Tris-HCl pH 7.5.

[8] = tested on: MCF7 cells; test: 6-day cell proliferation assay, MCF7; assay type: cell-based, human; settings: Homo sapiens, 144 h; MCF7, proliferation over 6 days
Procedure: as §1, §2

[9] = tested on: T-47D cells; test: 6-day cell proliferation assay, T-47D; assay type: cell-based, human; settings: Homo sapiens, T47D, 144 h, proliferation over 6 days
Procedure: as §1, §2

[10] = tested on: breast cancer cell lines; settings: previously reported (Huang et al. 2018); cited from earlier work
[11] = tested on: GLS2 protein levels in TSE cells; test: Western blot of GLS2 in TSE cells treated with hypomethylating agent; assay type: cell-based, human; settings: 48 hours
Procedure: Cells, or fractionated mitochondria and nuclei, were lysed with ice-cold lysis buffer (50 mM HEPES pH 8.0, 150 mM NaCl, 25 mM NaF, 1% (v/v) Triton X-100, 1 mM MgCl2, 50 mM β-glycerophosphate, 30 μg/ml leupeptin, 5 μg/ml aprotinin), and insoluble debris cleared by centrifugation at 4° C. Protein concentrations were determined by Bradford assay (Bio-Rad), and lysate was then boiled for 10 min in reducing SDS-sample buffer. Lysate proteins (20 μg total protein/lane, except for the cell fractionation experiment in which 5 μg total protein/lane was used) were then resolved on Novex 12% Tris-Glycine Mini Gels (Thermo Fisher Scientific) and transferred to PVDF membrane (PerkinElmer). Membranes were blocked in 7% BSA in Tris-Buffered Saline plus 0.05% TWEEN 20 (TBST) for 1 hour at room temperature and probed overnight at 4° C. in primary antibody solution in TBST (see Table 3 for antibody dilutions). They were then washed with TBST and incubated in TBST containing 25% (v/v) non-fat dry milk powder and anti-Rabbit or anti-Mouse secondary antibody (1:2500) for 1 hour. Finally, membranes were washed in TBST, and imaged using Western Lightning Plus-ECL (PerkinElmer) and HyBlot ES autoradiography film (Denville Scientific Inc.).

O=C(Cc1cccc(OC(F)(F)F)c1)Nc1ccc(CCCCc2nnc(NC(=O)Cc3ccccn3)s2)nn1 [CB-839]
pEC50 [1]: 7.31
pEC50 [2]: 7.51
pEC50 [3]: 7.72
pEC50 [4]: < 6.00
pEC50 [5]: < 6.00
pEC50 [6]: 7.39
inhibition of recombinant GLS2 activity [7]: resistance
pEC50 [8]: < 6.00
pEC50 [9]: < 6.00

O=C(Cc1ccccc1)Nc1nnc(NC2CCN(c3nnc(NC(=O)Cc4ccccc4)s3)CC2)s1 [UPGL00004]
selectivity profile, basal- versus luminal-subtype cells [10]: same selectivity profile

Nc1ncn([C@@H]2O[C@H](CO)[C@@H](O)[C@H]2O)c(=O)n1 [azacitidine]
GLS2 protein levels [11]: increased

Source: patent US20250275964A1, “METHODS OF INHIBITING LIVER-TYPE GLUTAMINASE, GLS2” (CORNELL UNIVERSITY, priority 2019, published 2025)
